From ChEMBL document CHEMBL6096667, “Design, synthesis and biological evaluation of biaryl amide derivatives as modulators of multi-drug resistance” (Eur J Med Chem, 2025) come the findings set out here.

Series [1] concerns A2780/Taxol. Nature of the series: Inhibition of cell proliferation of human Paclitaxel-resistant A2780/T cells at 10 uM incubated for 48 hrs in presence of PTX by MTT assay relative to control. The class given is functional. (Tetrazolium assays rely on reduction of a dye to a coloured formazan, in cell work by metabolically active cells.)
Series [2] concerns A2780/Taxol. Put plainly: Inhibition of cell proliferation of human Paclitaxel-resistant A2780/T cells incubated for 48 hrs in presence of PTX by MTT assay. The class given is functional, cell-based.
The nature of series [3]: Reversal of paclitaxel resistance in human A2780/CDDP cells assessed as reversal fold by measuring ratio of paclitaxel IC50 to paclitaxel IC50 in presence of test compound by MTT assay. The class given is functional.
Series [4] concerns A2780/Taxol. Nature of the series: Reversal of paclitaxel resistance in human Paclitaxel-resistant A2780/T cells assessed as reversal fold by measuring ratio of paclitaxel IC50 to paclitaxel IC50 in presence of test compound at 1 uM incubated for 48 hrs by MTT assay. The class given is functional.
The test system of series [5] is A2780/Taxol. Nature of the series: Inhibition of cell proliferation of human Paclitaxel-resistant A2780/T cells at 1 uM incubated for 48 hrs in presence of PTX by MTT assay relative to control. The format is functional.
Series [6] has as its target T1, ATP-dependent translocase ABCB1 (Homo sapiens, UniProt P08183). Put plainly: Binding affinity to CM5 sensor chip-immobilized human P-gp assessed as dissociation constant by SPR analysis. In general terms: Surface plasmon resonance follows binding to a sensor surface in real time, without labels.
The nature of series [7]: Reversal of paclitaxel resistance in human CDDP-resistant A549 cells assessed as reversal fold by measuring ratio of paclitaxel IC50 to paclitaxel IC50 in presence of test compound by MTT assay. The format is functional, CDDP-resistant A549 cell.
Series [8] has as its system A2780/Taxol. Nature of the series: Reversal of paclitaxel resistance in human Paclitaxel-resistant A2780/T cells by MTT assay. The format is functional, cell-based.
Series [9] addresses T1, ATP-dependent translocase ABCB1. Nature of the series: Inhibition of P-gp in human Paclitaxel-resistant A2780/T cells incubated for 48 hrs by Western blot analysis. The class given is cell-based. Conditions: paclitaxel-resistant a2780/t cell, 10 µM; call rule not given here. On the technique in general: In western blotting, separated proteins are transferred to a membrane and probed.
Series [10] concerns the target T2, Broad substrate specificity ATP-binding cassette transporter ABCG2 (Homo sapiens, UniProt Q9UNQ0).
T2 sequence (Q9UNQ0 whole entry): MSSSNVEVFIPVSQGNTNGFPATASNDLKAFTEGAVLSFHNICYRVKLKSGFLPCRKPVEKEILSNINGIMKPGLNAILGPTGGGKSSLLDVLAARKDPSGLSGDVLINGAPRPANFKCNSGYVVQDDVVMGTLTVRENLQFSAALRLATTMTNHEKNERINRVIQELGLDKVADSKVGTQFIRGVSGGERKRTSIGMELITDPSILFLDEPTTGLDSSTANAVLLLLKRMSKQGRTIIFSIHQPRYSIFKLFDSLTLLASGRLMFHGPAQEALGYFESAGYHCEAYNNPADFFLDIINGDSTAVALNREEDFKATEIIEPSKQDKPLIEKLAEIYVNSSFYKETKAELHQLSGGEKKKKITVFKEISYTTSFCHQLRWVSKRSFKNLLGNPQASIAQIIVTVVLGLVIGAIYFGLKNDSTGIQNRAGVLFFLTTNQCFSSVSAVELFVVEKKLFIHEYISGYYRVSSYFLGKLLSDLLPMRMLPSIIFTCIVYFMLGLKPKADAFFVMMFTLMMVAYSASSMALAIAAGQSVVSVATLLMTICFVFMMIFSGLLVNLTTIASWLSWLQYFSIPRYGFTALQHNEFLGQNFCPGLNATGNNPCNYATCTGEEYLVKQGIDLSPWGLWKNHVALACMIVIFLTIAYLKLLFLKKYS
Nature of the series: Inhibition of ABCG2 in human Paclitaxel-resistant A2780/T cells at high concentration incubated for 48 hrs by Western blot analysis. The class given is cell-based. The settings on record: paclitaxel-resistant a2780/t cell.

Series [11] has as its target T1, ATP-dependent translocase ABCB1. Put plainly: Inhibition of P-gp-mediated drug efflux of Rh123 in human Paclitaxel-resistant A2780/T cells at 2 uM measured upto 120 mins by flow cytometry. The format is cell-based. Conditions: paclitaxel-resistant a2780/t cell, 2 h.
Series [12] concerns A2780/Taxol. Put plainly: Induction of intracellular Rh123 accumulation in human Paclitaxel-resistant A2780/T cells incubated for 4 hrs by flow cytometry. The format is functional, cell-based. Conditions: dose 0.5-2 µM.
Series [13] deals with Multidrug resistance-associated protein 1 (Homo sapiens, UniProt P33527). Nature of the series: Inhibition of MRP1 in human Paclitaxel-resistant A2780/T cells at high concentration incubated for 48 hrs by Western blot analysis. The format is cell-based. The settings on record: paclitaxel-resistant a2780/t cell.
Series [14] is described as follows: Inhibition of cell proliferation of human CDDP-resistant A549 cells by MTT assay. The format is functional, cell-based.
Series [15] relates to A2780/Taxol. Put plainly: Inhibition of cell proliferation of human Paclitaxel-resistant A2780/T cells at 0.01 uM incubated for 48 hrs in presence of PTX by MTT assay relative to control. The format is functional.
Series [16] relates to A2780/Taxol. Nature of the series: Inhibition of cell proliferation of human Paclitaxel-resistant A2780/T cells at 0.1 uM incubated for 48 hrs in presence of PTX by MTT assay relative to control. The format is functional.
Series [17] is described as follows: Inhibition of cell proliferation of human A2780/CDDP cells by MTT assay. The class given is functional, cell-based.

A value given as a limit tells only on which side of the number the result lay.

T1 sequence (P08183 whole entry): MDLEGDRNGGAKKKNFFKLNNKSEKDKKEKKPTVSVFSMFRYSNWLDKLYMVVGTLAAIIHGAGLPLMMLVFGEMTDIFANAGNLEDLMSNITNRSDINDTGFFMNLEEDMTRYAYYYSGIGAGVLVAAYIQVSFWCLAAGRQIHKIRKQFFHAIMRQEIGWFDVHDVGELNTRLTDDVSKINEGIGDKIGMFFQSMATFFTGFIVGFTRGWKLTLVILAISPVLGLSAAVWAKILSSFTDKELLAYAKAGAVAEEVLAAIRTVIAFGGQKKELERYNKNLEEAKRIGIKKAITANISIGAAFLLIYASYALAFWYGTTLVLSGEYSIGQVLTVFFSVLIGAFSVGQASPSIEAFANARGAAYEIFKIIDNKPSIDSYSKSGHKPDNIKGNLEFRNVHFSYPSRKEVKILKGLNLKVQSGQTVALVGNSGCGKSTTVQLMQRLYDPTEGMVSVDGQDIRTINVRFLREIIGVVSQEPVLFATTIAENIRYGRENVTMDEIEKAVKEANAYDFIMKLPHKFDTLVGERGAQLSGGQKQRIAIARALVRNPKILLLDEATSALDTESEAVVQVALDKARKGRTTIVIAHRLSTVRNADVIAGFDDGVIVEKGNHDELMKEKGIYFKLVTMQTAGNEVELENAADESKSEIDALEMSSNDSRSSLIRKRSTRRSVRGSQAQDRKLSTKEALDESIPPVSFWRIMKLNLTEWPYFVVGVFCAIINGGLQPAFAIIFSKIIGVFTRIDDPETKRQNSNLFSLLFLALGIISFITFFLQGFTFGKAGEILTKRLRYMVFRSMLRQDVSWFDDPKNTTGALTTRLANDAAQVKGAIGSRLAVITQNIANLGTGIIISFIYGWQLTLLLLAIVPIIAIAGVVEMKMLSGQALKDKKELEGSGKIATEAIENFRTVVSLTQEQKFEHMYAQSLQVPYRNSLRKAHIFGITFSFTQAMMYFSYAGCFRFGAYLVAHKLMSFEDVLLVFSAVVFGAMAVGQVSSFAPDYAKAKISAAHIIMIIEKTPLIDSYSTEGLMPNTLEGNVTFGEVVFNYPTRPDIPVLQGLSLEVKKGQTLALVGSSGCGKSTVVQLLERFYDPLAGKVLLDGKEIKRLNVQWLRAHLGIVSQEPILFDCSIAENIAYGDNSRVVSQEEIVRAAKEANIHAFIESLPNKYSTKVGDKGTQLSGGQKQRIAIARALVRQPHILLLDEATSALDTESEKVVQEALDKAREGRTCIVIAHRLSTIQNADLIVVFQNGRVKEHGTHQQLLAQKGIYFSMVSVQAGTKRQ
Sequence of Multidrug resistance-associated protein 1 (P33527 whole entry): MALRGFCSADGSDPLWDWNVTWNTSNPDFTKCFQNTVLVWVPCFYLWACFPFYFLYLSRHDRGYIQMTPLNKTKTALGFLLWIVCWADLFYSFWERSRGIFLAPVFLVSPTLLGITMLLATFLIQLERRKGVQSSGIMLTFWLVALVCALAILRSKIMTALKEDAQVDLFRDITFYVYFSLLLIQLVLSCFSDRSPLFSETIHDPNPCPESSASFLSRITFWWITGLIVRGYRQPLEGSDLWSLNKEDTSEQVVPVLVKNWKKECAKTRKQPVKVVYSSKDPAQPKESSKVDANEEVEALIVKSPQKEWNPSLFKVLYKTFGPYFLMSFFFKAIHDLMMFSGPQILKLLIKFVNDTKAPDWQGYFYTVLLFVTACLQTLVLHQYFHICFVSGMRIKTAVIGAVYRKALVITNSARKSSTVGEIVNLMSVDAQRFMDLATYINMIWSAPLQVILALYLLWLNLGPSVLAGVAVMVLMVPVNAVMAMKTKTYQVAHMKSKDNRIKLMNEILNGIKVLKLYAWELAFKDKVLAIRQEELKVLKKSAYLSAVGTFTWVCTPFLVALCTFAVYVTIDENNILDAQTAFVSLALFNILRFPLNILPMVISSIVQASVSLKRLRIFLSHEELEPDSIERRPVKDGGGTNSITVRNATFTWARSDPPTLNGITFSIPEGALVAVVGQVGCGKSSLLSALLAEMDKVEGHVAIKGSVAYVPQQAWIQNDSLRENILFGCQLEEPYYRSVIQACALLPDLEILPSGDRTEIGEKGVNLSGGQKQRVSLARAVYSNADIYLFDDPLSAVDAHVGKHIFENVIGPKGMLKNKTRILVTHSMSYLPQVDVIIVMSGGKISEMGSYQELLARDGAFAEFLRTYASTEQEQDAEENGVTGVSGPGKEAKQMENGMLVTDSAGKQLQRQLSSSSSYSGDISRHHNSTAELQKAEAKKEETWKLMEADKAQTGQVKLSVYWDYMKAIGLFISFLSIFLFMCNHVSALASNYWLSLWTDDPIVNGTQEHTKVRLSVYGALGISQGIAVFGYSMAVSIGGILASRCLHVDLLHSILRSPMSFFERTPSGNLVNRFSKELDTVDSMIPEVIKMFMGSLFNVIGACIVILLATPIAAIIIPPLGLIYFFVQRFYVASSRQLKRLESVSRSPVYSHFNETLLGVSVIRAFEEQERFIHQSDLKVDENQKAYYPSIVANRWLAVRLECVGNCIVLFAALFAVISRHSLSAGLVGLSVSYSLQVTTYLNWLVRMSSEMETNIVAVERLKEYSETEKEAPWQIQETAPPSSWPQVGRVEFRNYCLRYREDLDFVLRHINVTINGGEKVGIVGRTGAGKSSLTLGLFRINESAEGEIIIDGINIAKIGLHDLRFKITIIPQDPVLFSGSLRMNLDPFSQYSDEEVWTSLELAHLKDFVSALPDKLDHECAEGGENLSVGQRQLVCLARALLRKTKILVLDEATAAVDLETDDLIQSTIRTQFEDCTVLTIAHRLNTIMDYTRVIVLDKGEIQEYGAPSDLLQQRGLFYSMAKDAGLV

In general, inhibition refers to the share of the control response that was lost under treatment. The term IC50 denotes the concentration that gives 50% inhibition. As a reminder, the Kd is the constant that tells how readily two partners part at equilibrium. With `Cn1cc(C(=O)NCc2ccc(-c3ccccc3)cn2)c2ccccc21`, the inhibition at 10 µM with A2780/Taxol [1] was found to be 81%. For the same compound, the concentration for half-maximal inhibition (IC50) in the series with A2780/Taxol [2] is above 50 µM. In addition, the “Ratio IC50” value was found to be 5 in series [3], 18 in the series on A2780/Taxol [4] and 3 in series [7]. For the same compound, in the series with A2780/Taxol [5], the inhibition at 1 µM worked out at 30%. In addition, the Kd in series [6] was 1.66 µM.

Usually EC50 stands for the concentration giving half of the maximal effect. In the case of `Cn1cc(C(=O)NCc2ccc(-c3cccc4ccccc34)cn2)c2ccccc21`, in the series on A2780/Taxol [8], the EC50 turned out to be 0.126 µM. Further, the inhibition at 10 µM with A2780/Taxol [1] was 83%. In addition, the IC50 in the series with A2780/Taxol [2] was above 50 µM. The figures for the “Ratio IC50” value (in [3]; in the series with A2780/Taxol [4]; in [7]) were 6, 138 and 4, respectively. In the series on A2780/Taxol [5], the inhibition at 1 µM is 46%.

In the case of `Cn1cc(C(=O)NCc2ccc(-c3ccc(OCc4ccccc4)cc3)cn2)c2ccccc21`, the inhibition at 10 µM in the series with A2780/Taxol [1] was found to be 78%. For the same compound, the IC50 in the series on A2780/Taxol [2] was above 50 µM. The “Ratio IC50” value in the series with A2780/Taxol [4] was determined as 54. Moreover, the inhibition at 1 µM in the series on A2780/Taxol [5] stood at 41%.

Consider `COc1cc(-c2ccc(CNC(=O)c3cn(C)c4ccccc34)nc2)cc(OC)c1OC`, for which the EC50 in the series with A2780/Taxol [8] stood at 0.088 µM. Moreover, in the series on A2780/Taxol [1], the inhibition at 10 µM is 88%. Also, the “inhibition (INH)” value is reported as “Dose-dependent-effect” in [9], “Not_active” in series [10], “Active” in series [11] and “Active” in series [13]. Further, the IC50 with A2780/Taxol [2] was above 50 µM. For the same compound, the figures for the “Ratio IC50” value (in series [3]; in the series with A2780/Taxol [4]; in series [7]) were 11, 156 and 7, respectively. The Activity entry with A2780/Taxol [12] is “Dose-dependent-effect; Activity Was Observed Superior To Vrp”. The inhibition at 1 µM in the series on A2780/Taxol [5] is 55%. Besides, in series [6], the Kd was 0.798 µM.

Take `COc1ccc(-c2ccc(CNC(=O)c3cn(C)c4ccccc34)nc2)cc1F`: the inhibition at 10 µM with A2780/Taxol [1] came to 71%. In addition, the IC50 in the series with A2780/Taxol [2] was above 50 µM. The “Ratio IC50” value with A2780/Taxol [4] came to 78. Also, the inhibition at 1 µM in the series on A2780/Taxol [5] was determined as 40%.

Consider `CC(=O)O[C@H]1C(=O)[C@@]2(C)[C@H]([C@H](OC(=O)c3ccccc3)[C@]3(O)C[C@H](OC(=O)[C@H](O)[C@@H](NC(=O)c4ccccc4)c4ccccc4)C(C)=C1C3(C)C)[C@]1(OC(C)=O)CO[C@@H]1C[C@@H]2O` [PACLITAXEL], for which, in the series on A2780/Taxol [1], the inhibition at 10 µM amounted to 35%. The IC50 in [14] came out at 27.2 µM; in series [17], 55.2 µM; with A2780/Taxol [2], 14.1 µM. In addition, in the series on A2780/Taxol [15], the inhibition at 0.01 µM came out at 9%. In the series on A2780/Taxol [16], the inhibition at 0.1 µM is 35%. Moreover, the inhibition at 1 µM in the series with A2780/Taxol [5] is 9%.

`COc1ccc(-c2ccc(CNC(=O)c3cn(C)c4ccccc34)nc2)c(OC)c1`: in the series with A2780/Taxol [1], the inhibition at 10 µM turned out to be 80%. In the series on A2780/Taxol [2], the IC50 was above 50 µM. Also, the “Ratio IC50” value with A2780/Taxol [4] was 38. Besides, the inhibition at 1 µM with A2780/Taxol [5] is 36%.

`Cn1cc(C(=O)NCc2ccc(-c3cccs3)cn2)c2ccccc21`: the inhibition at 10 µM with A2780/Taxol [1] was 80%. In the series on A2780/Taxol [2], the IC50 was above 50 µM. The “Ratio IC50” value in the series with A2780/Taxol [4] is on record as 47. In the series with A2780/Taxol [5], the inhibition at 1 µM is 6%.

In the case of `Cn1cc(C(=O)NCc2ccc(-c3cnc4ccccc4c3)cn2)c2ccccc21`, the inhibition at 10 µM in the series on A2780/Taxol [1] stood at 76%. The IC50 with A2780/Taxol [2] is above 50 µM. Also, in the series with A2780/Taxol [4], the “Ratio IC50” value is reported as 9. Also, the inhibition at 1 µM in the series with A2780/Taxol [5] is 46%.
